Source: patent publication EP2346328B1, “USE OF COSTIC ACID OR EXTRACTS OF DITTRICHIA VISCOSA AGAINST VARROA DESTRUCTOR” (Katerinopoulos, E. Haralambos, priority 2008, dated 2009)

Tests used:
[1] = Cytotoxicity assay in human cells (WST-1); type: cell-based; conditions: HUVEC, 24 h exposure, WST-1 absorbance after 4h and 24h, read-out: concentrations at which not cytotoxic
Method: Example 4.Cytotoxicity assays in human cells. Cytotoxicity of costic acid was measured in human umbilical vein endothelial cells (HUVEC), using the Cell Proliferation Reagent WST-1 (Cat. No. 13396300, Roche). The assay was performed according to the instructions protocol. Cells (7500 per well) were exposed to different concentrations of costic acid for 24 h before adding the WST-1 reagent. After 4h and again after 24h the absorbance was measured using an Optimax UV/VIS spectrometer (wavelengths: 440nm and 650nm). Costic acid was not cytotoxic at concentrations up to 230 micromolar.

V. destructor = assay: In vivo vial experiments with V. destructor: mite mortality on exposure to treated filter paper; design: species or system Varroa destructor
Method: In vivo Experiments with V. destructor. The mites (V. destructor) were collected from colonies of A. mellifera. For mite collection two different methods were used: The first method involved removal of the mites from infected adult bees using a soft brush with the help of a stereoscope. In method b) infected adult honeybees were transferred directly from bee frames into a wire-screen cylinder. Then the cylinder was placed inside a second Plexiglas cylinder and CO2 was released for 5 min with a flow rate of 5 l/min causing anaesthesia to the mites (as well as to the bees). The whole apparatus was then shaken several times to separate the mites from the bees. In a few minutes they had recovered from the effect of the anaesthesia.^39
Using a stereoscope binocular set varroa was placed in 20 mL glass vials. Stock solutions of the extraction materials were prepared in acetone in 10 mg/mL concentrations. In each experiment 20, 60, or 100 microliter aliquots of the stock solution were placed on filter paper adjusted to the cups of 20 ml vials, each containing five living mites. Acetone was used in the control experiments which were performed in five replicates. In both cases the solvent was allowed to evaporate before covering the vials. The vials were kept in an incubator at 37 C. Mortality of mites was recorded under a stereoscope binocular set after 5, 8, 12, and 19 hours.

varroa = assay: Field tests on bee populations: count of dead varroa after spraying; type: in vivo, Varroa destructor; conditions: after ten days; commercial acaricides; sprayed directly on the bees (100 mL per group, oxalic acid 70 mL)
Method: Example 5. Field Tests on bee populations. Field test were conducted using 40 bees on each trial at various locations on the island of Crete such as the Lassithi Plateau and the Messara Plains. In the field tests, Group B' extract was used in a solution of 1 g of this extract in 1 ml ethanol that was further diluted with water to a total volume of 1 L. A second solution was prepared as described above, using 2 g of Group B' mixture. For comparison purposes, each bee population was divided in […] groups. Two of these groups were treated with commercial acaricides A fifth, control group, was sprayed with deionized water. As known acaricide preparations were used a) BAYVAROL (active ingredient: Flumethrine) and b) a 4% solution of oxalic acid in 50% sugar solution. The total volume of solutions that were sprayed directly on the bees was 100 mL per group. In the case of the oxalic acid solution, the volume was 70 mL. Dead varroa was collected on a sheet of paper covered with Vaseline and sunflower oil. After ten days, the number of dead varroa was counted. Considering the number of dead varroa in the oxalic acid experiment as 100%, the respective numbers were 60% for either extract preparation, 55% for BAYVAROL and 8% for the control.

SMILES	MNTC at 24 h [1] [µM]	optimal concentration of the stock solution (V. destructor; 10 mg/mL stock solution in acetone, higher concentrations did not enhance activity) [microliter per vial]	percent mortality of varroa (V. destructor; Fig. 1, 20 or 60 or 100 microliters of 10mg/mL acetone solutions)	time after application of the largest activity difference between costic acid and total extract (V. destructor; Fig. 2, activity as a function of time of application) [h]	acaricidal activity (V. destructor; in vivo vial experiments, fractions and isolated components of D. viscosa extract)	number of dead varroa, oxalic acid experiment as 100% (varroa) [%]
C=C(C(=O)O)C1CCC2(C)CCCC(=C)C2C1 (stereo not drawn) [costic acid]	≥ 230	60	increases drastically	8	acaricidal activity rested in costic acid	–
O=C(O)C(=O)O [oxalic acid]	–	–	–	–	–	100
